The record followed here is paper PMC8909805, “Anticancer Activity of (S)-5-Chloro-3-((3,5-dimethylphenyl)sulfonyl)-N-(1-oxo-1-((pyridin-4-ylmethyl)amino)propan-2-yl)-1H-indole-2-carboxamide (RS4690), a New Dishevelled 1 Inhibitor” (Cancers, 2022).

The experiment addresses T1, DVL1 binding to FZD4 (Homo sapiens, UniProt O14640).
T1 construct: host or cells: HEK293
T1 sequence (O14640 1-695): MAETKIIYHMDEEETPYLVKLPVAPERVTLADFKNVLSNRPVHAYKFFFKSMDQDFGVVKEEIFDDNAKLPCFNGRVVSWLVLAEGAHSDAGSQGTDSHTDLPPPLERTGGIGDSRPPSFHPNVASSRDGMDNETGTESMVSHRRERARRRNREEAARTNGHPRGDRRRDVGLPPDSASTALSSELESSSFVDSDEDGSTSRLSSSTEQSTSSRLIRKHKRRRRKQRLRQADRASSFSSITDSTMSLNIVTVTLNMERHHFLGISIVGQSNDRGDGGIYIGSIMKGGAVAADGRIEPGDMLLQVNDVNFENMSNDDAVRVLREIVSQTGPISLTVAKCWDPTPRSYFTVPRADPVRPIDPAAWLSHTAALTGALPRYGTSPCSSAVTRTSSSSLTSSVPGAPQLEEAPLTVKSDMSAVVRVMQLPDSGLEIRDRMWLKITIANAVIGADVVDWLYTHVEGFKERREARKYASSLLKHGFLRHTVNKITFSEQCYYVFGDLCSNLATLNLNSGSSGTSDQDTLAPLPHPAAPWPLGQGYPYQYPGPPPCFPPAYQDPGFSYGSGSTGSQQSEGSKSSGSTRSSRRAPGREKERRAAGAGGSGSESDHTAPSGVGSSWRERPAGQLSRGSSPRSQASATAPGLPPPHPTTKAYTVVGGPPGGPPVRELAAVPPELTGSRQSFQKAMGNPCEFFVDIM
The experiment can be described thus: Inhibition of DVL1 (DVL-GFP) recruitment by FZD4 at the plasma membrane of HEK293 cells. The class given is cell-based. The settings on record: HEK293 cells co-transfected with HA-FZD4 and GFP-DVL-1; 24 h treatment; read-out: EC50 ± SD DVL1 Binding Inhibition. On the procedure: HEK293 cells were seeded in 96-well tissue culture plates at a density of 5 × 10 ^3/well. After 16–24 h seeding, cells were co-transfected with HA-FZD4-wt (0.04 µg/well) and GFP-tagged DVL-1 (0.04 µg/well) using PEI (0.25 µL/well) in a final volume of 100 µL/well. After 24 h of transfection, the medium was replaced and supplemented with the indicated compounds diluted in culture medium. After 24 h of treatment, cells were fixed in 3.7% formaldehyde freshly diluted in PBS for 30 min at RT, quenched with 0.1 M glycine/PBS for 30 min at RT, and washed with PBS. Samples were observed under a Leica confocal fluorescent microscope. Inhibition of DVL recruitment was measured by counting the percentage of cells losing GFP-DVL-1 localization on the PM. Experiments were performed in triplicate, and the standard deviations are indicated.
The crucial role played by PDZ domains in the spreading of cellular signals and their aberrant activations in many human diseases makes the PDZ domains very attractive targets for drug discovery. […] To identify new DVL1 inhibitors, we followed a virtual screening approach by fixing as the main filter a pharmacophoric model. We speculated that compound 2, the recently reported inhibitor of NHERF1 PDZ1 domain [26], may be able also to bind the DVL PDZ domain. The activity of compound 2 was assayed in HEK293 cells transiently expressing both HA-tagged-FZD4 (HA-FZD4) and the chimeric construct DVL-GFP. In the absence of HA-FZD4, DVL-GFP is localized in punctate intracellular structures known as signalosomes. In the presence of FZD-4 expression, DVL-GFP is recruited on the PM of the cell showing a drastic change in localization. As previously reported, drugs acting as inhibitors of FZD4/DVL binding reduce the amount of DVL-GFP recruited on the PM. […] Thus, we used the information gained from the binding mode of compound 2 to design a pharmacophore model that would lead to the identification of new DVL1 PDZ binders. At the same time, to better distinguish between the inhibitory activities of DVL1 and NHERF1, we added a new query to the pharmacophore model. Actually, comparing the PDZ structures of the studied proteins, we identified a significant difference. The upper part of the carboxylic binding loop was delimited by Tyr24, Ile79 and Val86 for NHERF1, while we observed Leu12, Val75 and Ile81, respectively, for DVL1. […] This peculiar feature of the DVL1 PDZ was included in our pharmacophore model by adding a hydrophobic query to obtain the required selectivity (Figure S1, Supplementary Materials). […] Thus, for each molecule, we obtained 10 conformations, and all of the proposed binding poses (7000 molecules per 10 conformations) were scored by the fitting to the pharmacophore model. […]
Consider `Cc1cc(C)cc(S(=O)(=O)c2c(C(=O)N[C@H](C)C(=O)NCc3ccncc3)[nH]c3ccc(Cl)cc23)c1` [(R)-1], for which the EC50 came to 29500 ± 900 nM. The figure for `Cc1cc(C)cc(S(=O)(=O)c2c(C(=O)N[C@@H](C)C(=O)NCc3ccncc3)[nH]c3ccc(Cl)cc23)c1` [(S)-1, (S)-5-Chloro-3-((3,5-dimethylphenyl)sulfonyl)-N-(1-oxo-1-((pyridin-4-ylmethyl)amino)propan-2-yl)-1H-indole-2-carboxamide] is 490 ± 110 nM. Then `Cc1cc(C)cc(S(=O)(=O)c2c(C(=O)NC(C)C(=O)NCc3ccncc3)[nH]c3ccc(Cl)cc23)c1` (stereo not drawn) [Compound 1], with 740 ± 80 nM.
